Source: the supplement of paper PMC8967900

What was measured:
Test in all cases: selective drug sensitivity score (sDSS, relative to normal bone marrow) (sDSS (score)); higher = more potent and effective on the cell line relative to normal bone marrow cells
Conditions in all cases: 72 h
HPB-ALL = tested on: HPB-ALL
P12-ICHIKAWA = tested on: P12-ICHIKAWA
ALL-PO = tested on: ALL-PO
REH = tested on: REH
COG-LL-319h = tested on: COG-LL-319h
PEER = tested on: PEER
KOPN-8 = tested on: KOPN-8
COG-LL-394h = tested on: COG-LL-394h
NALL-1 = tested on: NALL-1
NALM-6 = tested on: NALM-6
COG-LL-332h = tested on: COG-LL-332h
JURKAT = tested on: JURKAT
P30-OHKUBO = tested on: P30-OHKUBO
TMD5 = tested on: TMD5
DND-41 = tested on: DND-41
HAL-01 = tested on: HAL-01
MHH-CALL-4 = tested on: MHH-CALL-4
COG-LL-402h = tested on: COG-LL-402h
KASUMI-2 = tested on: KASUMI-2
MN-60 = tested on: MN-60
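Note: ALL cell lines in 384-well plates, five doses spanning 10,000-fold, each plate scaled between vehicle and 100 µmol/L benzalkonium chloride controls, sDSS an adapted area-under-curve metric.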

| Compound | selective drug sensitivity score (HPB-ALL) | selective drug sensitivity score (P12-ICHIKAWA) | selective drug sensitivity score (ALL-PO) | selective drug sensitivity score (REH) | selective drug sensitivity score (COG-LL-319h) | selective drug sensitivity score (PEER) | selective drug sensitivity score (KOPN-8) | selective drug sensitivity score (COG-LL-394h) | selective drug sensitivity score (NALL-1) | selective drug sensitivity score (NALM-6) | selective drug sensitivity score (COG-LL-332h) | selective drug sensitivity score (JURKAT) | selective drug sensitivity score (P30-OHKUBO) | selective drug sensitivity score (TMD5) | selective drug sensitivity score (DND-41) | selective drug sensitivity score (HAL-01) | selective drug sensitivity score (MHH-CALL-4) | selective drug sensitivity score (COG-LL-402h) | selective drug sensitivity score (KASUMI-2) | selective drug sensitivity score (MN-60) |
| --- | --- | --- | --- | --- | --- | --- | --- | --- | --- | --- | --- | --- | --- | --- | --- | --- | --- | --- | --- | --- |
| COc1cc(N2CCN(C)CC2)ccc1Nc1nccc(-c2cn(C)c3cnccc23)n1 [AZ191] (top concentration 10000 nM) | -4.72 | -2.22 | 3.58 | 0.48 | -2.92 | -1.92 | 2.18 | -0.72 | 2.88 | -1.72 | -0.02 | -3.02 | -0.72 | -4.32 | 0.08 | 0.88 | 1.98 | -0.22 | -5.12 | -1.92 |
| c1cn2cc(-c3ccc4cn[nH]c4c3)nc(Nc3ccc(N4CCOCC4)cc3)c2n1 [Entospletinib] (top concentration 5000 nM) | -0.64 | -0.64 | 7.26 | -0.64 | -0.64 | -0.64 | 1.46 | -0.64 | -0.64 | 1.26 | -0.64 | -0.64 | 6.96 | -0.64 | -0.64 | -0.64 | -0.64 | 0.36 | -0.64 | -0.64 |
| CC[C@@H]1CN(C(=O)NCC(F)(F)F)C[C@@H]1c1cnc2cnc3[nH]ccc3n12 [Upadacitinib] (top concentration 10000 nM) | -7.16 | -7.16 | -7.16 | -7.16 | -7.16 | -6.66 | -7.16 | -7.16 | -7.16 | -5.96 | -6.66 | -6.86 | -3.16 | -7.16 | 0.84 | -6.76 | -6.46 | -7.16 | -6.56 | -7.16 |
| Nc1cccc2c1C(=O)N(C1CCC(=O)NC1=O)C2=O (stereo not given) [Pomalidomide] (top concentration 10000 nM) | 1.44 | -0.26 | 8.14 | 2.74 | -0.26 | -0.26 | -0.26 | 0.04 | -0.06 | -0.26 | -0.26 | -0.26 | 0.54 | -0.26 | 4.24 | -0.26 | 7.54 | 0.64 | -0.26 | -0.26 |
| CC[C@@H]1[C@H](F)C(=O)N[C@@H]1COc1nccc2cc(C(N)=O)c(OC)cc12 (top concentration 10000 nM) | -1.32 | 0.18 | 2.08 | -1.32 | 2.88 | 1.08 | 1.78 | 0.38 | -1.32 | 4.48 | -0.42 | 0.48 | 2.38 | -1.32 | -1.32 | -1.32 | -0.92 | 3.08 | -1.32 | 5.88 |
| C=CC(=O)Nc1cc(Nc2nccc(-c3cn(C)c4ccccc34)n2)c(OC)cc1N(C)CCN(C)C [Osimertinib] (top concentration 2500 nM) | -0.92 | -3.02 | -0.72 | 0.88 | -4.12 | 1.28 | -0.82 | 1.68 | 0.58 | -1.62 | -0.32 | -4.22 | 1.08 | 2.98 | -0.82 | -0.42 | -1.12 | 0.78 | -3.52 | -3.02 |
| N.N.[Cl][Pt][Cl] [Cisplatin] (top concentration 100000 nM) | 7.14 | 12.7 | 8.44 | 10.8 | 19.4 | 2.64 | 21.7 | 0.54 | 6.84 | 0.64 | 19.4 | 13.1 | 16.7 | 1.24 | 9.54 | 12 | 10.7 | 1.54 | 17.2 | -0.56 |
| CCNc1nc(Nc2cc(F)c(C(=O)N3CCOCC3)cc2OC)ncc1C(F)(F)F [GNE-7915] (top concentration 1000 nM) | -0.06 | -0.06 | -0.06 | -0.06 | -0.06 | -0.06 | -0.06 | -0.06 | -0.06 | -0.06 | -0.06 | -0.06 | -0.06 | 5.44 | -0.06 | 1.04 | -0.06 | -0.06 | -0.06 | -0.06 |
| N#CC1(c2ccc(NC(=O)c3cccnc3NCc3ccncc3)cc2)CCCC1 [Apatinib] (top concentration 10000 nM) | 1 | 0 | 2.4 | 0.1 | 0.6 | 2.2 | 0.1 | 0 | 0 | 0.4 | 0 | 0 | 0 | 0 | 1 | 0 | 0 | 0 | 2.1 | 0 |
| Clc1ccc(C(c2ccccc2Cl)C(Cl)Cl)cc1 (stereo not given) [Mitotane] (top concentration 10000 nM) | 5.12 | -0.08 | -0.08 | -0.08 | -0.08 | -0.08 | 4.32 | -0.08 | -0.08 | -0.08 | 0.92 | -0.08 | -0.08 | -0.08 | -0.08 | 0.62 | 0.12 | -0.08 | -0.08 | -0.08 |
| CCN(c1cc(-c2ccc(CN3CCOCC3)cc2)cc(C(=O)NCc2c(C)cc(C)[nH]c2=O)c1C)C1CCOCC1 [Tazemetostat] (top concentration 10000 nM) | -0.08 | 0.02 | 0.32 | -0.08 | -0.08 | 0.32 | -0.08 | -0.08 | 8.22 | -0.08 | -0.08 | 0.02 | 0.42 | -0.08 | 0.02 | 3.82 | -0.08 | -0.08 | -0.08 | -0.08 |
| C=CC(=O)Nc1cccc(Nc2nc(Nc3ccc(N4CCN(C(C)=O)CC4)cc3OC)ncc2C(F)(F)F)c1 [Rociletinib] (top concentration 10000 nM) | 1.74 | 1.94 | 10.3 | 0.84 | 0.24 | 4.24 | 1.14 | 5.24 | 3.14 | 4.94 | 1.84 | 2.64 | 4.24 | -2.06 | -0.56 | 0.14 | 2.14 | 5.24 | -2.46 | -0.76 |
| Cc1nc2cccc(N)c2c(=O)n1C1CCC(=O)NC1=O (stereo not given) [Avadomide (CC122)] (top concentration 10000 nM) | 0 | 0 | 0 | 3.6 | 0 | 0 | 1.3 | 0 | 0 | 0 | 0 | 0 | 5.9 | 3.5 | 0 | 1.6 | 3.9 | 0.2 | 0 | 2.3 |
| CCCCOc1nc(N)c2c(n1)N(Cc1cccc(CN3CCCC3)c1)CC(=O)N2 [Vesatolimod] (top concentration 10000 nM) | -3.52 | -3.52 | -3.52 | -3.52 | 0.38 | -3.52 | -3.22 | -3.32 | -3.52 | -3.52 | -3.52 | -3.42 | -3.52 | -3.52 | -2.12 | -3.52 | -3.52 | -3.52 | -3.52 | -2.32 |
| CNC(=O)c1ccc(N2C(=S)N(c3cnc(C#N)c(C(F)(F)F)c3)C(=O)C23CCC3)cc1F [Apalutamide] (top concentration 10000 nM) | 0 | 0 | 0 | 0 | 0 | 0.1 | 0 | 0 | 0 | 0 | 0 | 0 | 0 | 0 | 0 | 0 | 0 | 0.2 | 0 | 0 |
| COc1cc(Nc2c(C#N)cnc3cc(OCCCN4CCN(C)CC4)c(OC)cc23)c(Cl)cc1Cl [Bosutinib] (top concentration 10000 nM) | -2.64 | 0.96 | 0.36 | -1.94 | 1.66 | 9.16 | 4.56 | 1.16 | -0.94 | -1.24 | 6.56 | -0.74 | 3.56 | 9.06 | 0.06 | -0.54 | -3.14 | 5.66 | -2.04 | -3.24 |
| CCCCC(=O)OCC(=O)[C@]1(O)Cc2c(O)c3c(c(O)c2[C@@H](O[C@H]2C[C@H](NC(=O)C(F)(F)F)[C@H](O)[C@H](C)O2)C1)C(=O)c1c(OC)cccc1C3=O [Valrubicin] (top concentration 5000 nM) | -4.12 | 8.48 | -2.62 | 12.1 | 12.9 | -9.32 | 10.2 | 7.78 | -1.82 | 3.18 | 11.2 | 4.98 | 5.98 | 4.18 | -1.02 | 0.38 | 7.28 | 13.8 | 8.38 | -3.92 |
| C[C@@H]1CN(C(=O)c2ccc(NC(=O)c3cc(O[C@H](C)c4c(Cl)ccc(F)c4Cl)c(N)nn3)cc2)C[C@H](C)N1 [Ensartinib] (top concentration 1000 nM) | -2.84 | -2.54 | 0.26 | -2.24 | -2.64 | 1.96 | 1.16 | 0.86 | -2.84 | -0.44 | 2.76 | -2.54 | 2.06 | -1.84 | -2.84 | -2.84 | -2.84 | -2.34 | -1.54 | -2.84 |
